Molecular target: FXR (Homo sapiens (Human), UniProt Q96RI1)
Experiment: FXR EC50 (FXR agonist activity reported with each example)
Type: cell-based

Sequence of FXR (Q96RI1 262-486): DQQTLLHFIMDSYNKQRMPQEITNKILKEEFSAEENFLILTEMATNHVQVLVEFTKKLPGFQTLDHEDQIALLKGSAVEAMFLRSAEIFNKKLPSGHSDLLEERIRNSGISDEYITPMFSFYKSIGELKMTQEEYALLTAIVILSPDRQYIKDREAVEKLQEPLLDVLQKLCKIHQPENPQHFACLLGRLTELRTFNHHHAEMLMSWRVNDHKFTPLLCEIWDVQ

Row | SMILES | EC50
1 | O=C(O)c1ccc2nc(C34CCC(COCc5c(-c6c(Cl)cccc6Cl)noc5C5CC5)(CC3)CC4)sc2c1 [Example 168, 2-(4-(((5-cyclopropyl-3-(2,6-dichlorophenyl)isoxazol-4-yl)methoxy)methyl)bicyclo[2.2.2]octan-1-yl)benzo[d]thiazole-6-carboxylic acid] | 1200 nM
2 | O=C(O)c1ncc(OCC23CCC(OCc4c(-c5ccccc5C(F)(F)F)noc4C4CC4)(CC2)CC3)c2ccccc12 [Example 296] | 62 nM
3 | O=C(O)c1cccc2nc(C34CCC(OCc5c(-c6c(Cl)cncc6Cl)noc5C5CC5)(CC3)CC4)sc12 [Example 432, 2-(4-((5-cyclopropyl-3-(3,5-dichloropyridin-4-yl)isoxazol-4-yl)methoxy)bicyclo[2.2.2]octan-1-yl)benzo[d]thiazole-7-carboxylic acid] | 23 nM
4 | O=C(O)c1ccccc1CNC(=O)C12CCC(OCc3c(-c4c(Cl)cccc4Cl)noc3C3CC3)(CC1)CC2 [Example 142, 2-((4-((5-cyclopropyl-3-(2,6-dichlorophenyl)isoxazol-4-yl)methoxy)bicyclo[2.2.2]octane-1-carboxamido)methyl)benzoic acid] | 1300 nM
5 | COc1cc(-c2noc(C34CCC(OCc5c(-c6c(Cl)cncc6Cl)noc5C5CC5)(CC3)CC4)n2)cc(C(=O)O)c1OC [Example 243, 5-(5-(4-((5-cyclopropyl-3-(3,5-dichloropyridin-4-yl)isoxazol-4-yl)methoxy)bicyclo[2.2.2]octan-1-yl)-1,2,4-oxadiazol-3-yl)-2,3-dimethoxybenzoic acid] | 120 nM
6 | O=C(O)c1cc(-c2noc(C34CCC(OCc5c(-c6c(Cl)cncc6Cl)noc5C5CC5)(CC3)CC4)n2)cc(C(F)(F)F)n1 [Example 264, 4-(5-(4-((5-cyclopropyl-3-(3,5-dichloropyridin-4-yl)isoxazol-4-yl)methoxy)bicyclo[2.2.2]octan-1-yl)-1,2,4-oxadiazol-3-yl)-6-(trifluoromethyl)picolinic acid] | 180 nM
7 | CCn1nc(C(=O)O)c2ccc(C34CCC(OCc5c(-c6c(Cl)cncc6Cl)noc5C5CC5)(CC3)CC4)nc21 [Example 403] | 4 nM
8 | O=C(O)c1ccc2nc(C34CCC(OCc5c(-c6c(Cl)cccc6Cl)noc5C5CC5)(CC3)CC4)ccc2c1 [Example 134, 2-(4-((5-cyclopropyl-3-(2,6-dichlorophenyl)isoxazol-4-yl)methoxy)bicyclo[2.2.2]octan-1-yl)quinoline-6-carboxylic acid] | 83 nM
9 | O=C(O)c1cnn2ccc(C#CC34CCC(OCc5c(-c6c(Cl)cncc6Cl)noc5C5CC5)(CC3)CC4)cc12 [Example 395] | 120 nM
10 | O=C(O)[C@@H]1CCC[C@H](OCC23CCC(OCc4c(-c5ccccc5OC(F)(F)F)noc4C4CC4)(CC2)CC3)C1 [Example 81] | 4700 nM
11 | Cc1cc(C(=O)O)nc2c(F)cc(OCC34CCC(OCc5c(-c6c(Cl)cncc6Cl)noc5C5CC5)(CC3)CC4)cc12 [Example 307, 6-((4-((5-cyclopropyl-3-(3,5-dichloropyridin-4-yl)isoxazol-4-yl)methoxy)bicyclo[2.2.2]octan-1-yl)methoxy)-8-fluoro-4-methylquinoline-2-carboxylic acid] | 20 nM
12 | COCc1cc(C#CC23CCC(OCc4c(-c5c(Cl)cncc5Cl)noc4C4CC4)(CC2)CC3)cc(C(=O)O)c1 [Example 386] | 31 nM
13 | O=C(O)c1cc(F)c2nc(OCC34CCC(OCc5c(-c6ccccc6OC(F)(F)F)noc5C5CC5)(CC3)CC4)sc2c1 [Example 79] | 130 nM
14 | CC(C)(C(=O)O)c1ccc(C23CCC(/C=C/c4c(-c5c(Cl)cncc5Cl)noc4C4CC4)(CC2)CO3)cc1 [Example 482, (E)-2-(4-(4-(2-(5-cyclopropyl-3-(3,5-dichloropyridin-4-yl)isoxazol-4-yl)vinyl)-2-oxabicyclo[2.2.2]octan-1-yl)phenyl)-2-methylpropanoic acid] | 950 nM
15 | COc1cc(C(=O)O)c(F)c(-c2noc(C34CCC(OCc5c(-c6c(Cl)cncc6Cl)noc5C5CC5)(CC3)CC4)n2)c1 [Example 244, 3-(5-(4-((5-cyclopropyl-3-(3,5-dichloropyridin-4-yl)isoxazol-4-yl)methoxy)bicyclo[2.2.2]octan-1-yl)-1,2,4-oxadiazol-3-yl)-2-fluoro-5-methoxybenzoic acid] | 230 nM
16 | NC(=O)c1cc(-c2noc(C34CCC(/C=C/c5c(-c6c(Cl)cncc6Cl)noc5C5CC5)(CC3)CC4)n2)cc(C(F)(F)F)c1 [Example 441, (E)-3-(5-(4-(2-(5-cyclopropyl-3-(3,5-dichloropyridin-4-yl)isoxazol-4-yl)vinyl)bicyclo[2.2.2]octan-1-yl)-1,2,4-oxadiazol-3-yl)-5-(trifluoromethyl)benzamide] | 150 nM
17 | COc1cc(OCC23CCC(/C=C/c4c(-c5c(Cl)cncc5Cl)noc4C4CC4)(CC2)CO3)cc(C(=O)O)c1 [Example 470, (E)-3-((4-(2-(5-cyclopropyl-3-(3,5-dichloropyridin-4-yl)isoxazol-4-yl)vinyl)-2-oxabicyclo[2.2.2]octan-1-yl)methoxy)-5-methoxybenzoic acid] | 110 nM

Row | SMILES | EC50
18 | O=C(O)c1cc(C23CCC(COCc4c(-c5ccccc5OC(F)(F)F)noc4C4CC4)(CC2)CO3)ccc1F [Example 207] | 570 nM
19 | CCCc1cc(C(=O)O)nc2ccc(OCC34CCC(OCc5c(-c6c(Cl)cncc6Cl)noc5C5CC5)(CC3)CC4)cc12 [Example 338, 6-((4-((5-cyclopropyl-3-(3,5-dichloropyridin-4-yl)isoxazol-4-yl)methoxy)bicyclo[2.2.2]octan-1-yl)methoxy)-4-propylquinoline-2-carboxylic acid] | 17 nM
20 | O=C(O)C1(c2noc(C34CCC(OCc5c(-c6c(Cl)cncc6Cl)noc5C5CC5)(CC3)CC4)n2)CC1 [Example 271, 1-(5-(4-((5-cyclopropyl-3-(3,5-dichloropyridin-4-yl)isoxazol-4-yl)methoxy)bicyclo[2.2.2]octan-1-yl)-1,2,4-oxadiazol-3-yl)cyclopropane-1-carboxylic acid] | 1100 nM
21 | O=C(O)c1cccc(/C=C/C23CCC(COCc4c(-c5ccccc5OC(F)(F)F)noc4C4CC4)(CC2)CO3)c1 [Example 197, (E)-3-(2-(4-(((5-cyclopropyl-3-(2-(trifluoromethoxy)phenyl)isoxazol-4-yl)methoxy)methyl)-2-oxabicyclo[2.2.2]octan-1-yl)vinyl)benzoic acid] | 90 nM
22 | CCCc1cc(C(=O)O)nc2c(F)cc(OCC34CCC(OCc5c(-c6c(Cl)cncc6Cl)noc5C5CC5)(CC3)CC4)cc12 [Example 309, 6-((4-((5-cyclopropyl-3-(3,5-dichloropyridin-4-yl)isoxazol-4-yl)methoxy)bicyclo[2.2.2]octan-1-yl)methoxy)-8-fluoro-4-propylquinoline-2-carboxylic acid] | 13 nM
23 | O=C(O)c1cc(OCC23CCC(/C=C/c4c(-c5c(Cl)cncc5Cl)noc4C4CC4)(CC2)CC3)cc(OC(F)F)c1 [Example 444, (E)-3-((4-(2-(5-cyclopropyl-3-(3,5-dichloropyridin-4-yl)isoxazol-4-yl)vinyl)bicyclo[2.2.2]octan-1-yl)methoxy)-5-(difluoromethoxy)benzoic acid] | 16 nM
24 | O=C(O)c1cnc(OCC23CCC(OCc4c(-c5c(Cl)cncc5Cl)noc4C4CC4)(CC2)CC3)c(F)c1 [Example 118, 6-((4-((5-cyclopropyl-3-(3,5-dichloropyridin-4-yl)isoxazol-4-yl)methoxy)bicyclo[2.2.2]octan-1-yl)methoxy)-5-fluoronicotinic acid] | 33 nM
25 | O=C(O)c1cc(OC2CCC2)c2cc(OCC34CCC(OCc5c(-c6c(Cl)cncc6Cl)noc5C5CC5)(CC3)CC4)ccc2n1 [Example 344] | 17 nM
26 | O=C(O)c1cccc(-c2noc(C34CCC(COCc5c(-c6ccccc6OC(F)(F)F)noc5C5CC5)(CC3)CC4)n2)c1 [Example 153] | 320 nM
27 | O=C(O)c1ccc2c(c1)CN(CC13CCC(OCc4c(-c5c(Cl)cccc5Cl)noc4C4CC4)(CC1)CC3)CC2 [Example 362, 2-((4-((5-cyclopropyl-3-(2,6-dichlorophenyl)isoxazol-4-yl)methoxy)bicyclo[2.2.2]octan-1-yl)methyl)-1,2,3,4-tetrahydroisoquinoline-7-carboxylic acid] | 170 nM
28 | O=C(O)c1ccnc(C23CCC(OCc4c(-c5c(Cl)cccc5Cl)noc4C4CC4)(CC2)CC3)c1 [Example 137, 2-(4-((5-cyclopropyl-3-(2,6-dichlorophenyl)isoxazol-4-yl)methoxy)bicyclo[2.2.2]octan-1-yl)isonicotinic acid] | 420 nM
29 | O=C(O)c1ccc2c(c1)CCN(C(=O)C13CCC(OCc4c(-c5c(Cl)cccc5Cl)noc4C4CC4)(CC1)CC3)C2 [Example 140, 2-(4-((5-cyclopropyl-3-(2,6-dichlorophenyl)isoxazol-4-yl)methoxy)bicyclo[2.2.2]octane-1-carbonyl)-1,2,3,4-tetrahydroisoquinoline-6-carboxylic acid] | 1700 nM
30 | O=C(O)c1cccc(-c2noc(C34CCC(/C=C/c5c(-c6c(Cl)cccc6Cl)noc5C5CC5)(CC3)CC4)n2)c1 [Example 159, (E)-3-(5-(4-(2-(5-cyclopropyl-3-(2,6-dichlorophenyl)isoxazol-4-yl)vinyl)bicycle[2.2.2]octan-1-yl)-1,2,4-oxadiazol-3-yl)benzoic acid] | 14 nM
31 | O=C(O)c1cccc(NC(=O)C23CCC(C=Cc4c(-c5c(Cl)cccc5Cl)noc4C4CC4)(CC2)C3)c1 [Example 230] | 890 nM
32 | O=C(O)c1cc(C#CC23CCC(OCc4c(-c5c(Cl)cncc5Cl)noc4C4CC4)(CC2)CC3)cc2[nH]ccc12 [Example 415] | 63 nM
33 | CC(C)Oc1cc(-c2noc(C34CCC(OCc5c(-c6c(Cl)cncc6Cl)noc5C5CC5)(CC3)CC4)n2)cc(C(=O)O)n1 [Example 258, 4-(5-(4-((5-cyclopropyl-3-(3,5-dichloropyridin-4-yl)isoxazol-4-yl)methoxy)bicyclo[2.2.2]octan-1-yl)-1,2,4-oxadiazol-3-yl)-6-isopropoxypicolinic acid] | 8 nM
34 | O=C(O)c1ncc(OCC23CCC(OCc4c(-c5c(Cl)cncc5Cl)noc4C4CC4)(CC2)CC3)cc1OC1CCC1 [Example 339] | 28 nM
